According to the NIST ThermoML archive (doi:10.1021/je500792x):

Test: xn = mol fraction of the nth substance listed
Settings: Gas, Buoyancy - hydrostatic balance with magnetic suspension - two sinkers

C [methane] + CCC
Settings	mass density [kg/m3]
248.15 K, 120.09 kPa, x1 = 0.5069	1.7641
248.15 K, 129.19 kPa, x1 = 0.2658	2.3527
248.15 K, 129.2 kPa, x1 = 0.2658	2.353
248.15 K, 141.7 kPa, x1 = 0.2658	2.5862
248.15 K, 159.47 kPa, x1 = 0.2658	2.9223
248.15 K, 183.4 kPa, x1 = 0.5069	2.7164
248.15 K, 184.56 kPa, x1 = 0.2658	3.3988
248.15 K, 188.16 kPa, x1 = 0.2658	3.4688
248.15 K, 217.78 kPa, x1 = 0.2658	4.0405
248.15 K, 220.8 kPa, x1 = 0.2658	4.0982
248.15 K, 244.4 kPa, x1 = 0.5069	3.6498
248.15 K, 251.13 kPa, x1 = 0.2658	4.6926
248.15 K, 251.49 kPa, x1 = 0.2658	4.7012
248.15 K, 271.99 kPa, x1 = 0.2658	5.106
248.15 K, 275.99 kPa, x1 = 0.2658	5.1859
248.15 K, 303.31 kPa, x1 = 0.5069	4.5661
248.15 K, 360.5 kPa, x1 = 0.5069	5.4702
248.15 K, 424.87 kPa, x1 = 0.5069	6.5055
248.16 K, 96.6 kPa, x1 = 0.2658	1.7469
248.16 K, 390.04 kPa, x1 = 0.7498	4.4826
248.16 K, 500.33 kPa, x1 = 0.7498	5.7986
248.16 K, 580.7 kPa, x1 = 0.7498	6.7717
248.16 K, 685.07 kPa, x1 = 0.7498	8.0551
248.16 K, 786.24 kPa, x1 = 0.7498	9.3205
248.16 K, 835.6 kPa, x1 = 0.7498	9.9461
248.17 K, 276.07 kPa, x1 = 0.7498	3.1456
273.15 K, 123.94 kPa, x1 = 0.2658	2.0343
273.15 K, 149.35 kPa, x1 = 0.2658	2.4607
273.15 K, 167.49 kPa, x1 = 0.2658	2.7678
273.15 K, 198.96 kPa, x1 = 0.2658	3.3031
273.15 K, 218.04 kPa, x1 = 0.5069	2.9261
273.15 K, 242.18 kPa, x1 = 0.2658	4.0482
273.15 K, 247.99 kPa, x1 = 0.2658	4.1483
273.15 K, 258.4 kPa, x1 = 0.5069	3.4829
273.15 K, 262.29 kPa, x1 = 0.5069	3.5352
273.15 K, 269.26 kPa, x1 = 0.5069	3.6315
273.15 K, 277.28 kPa, x1 = 0.5069	3.7427
273.15 K, 300.07 kPa, x1 = 0.2658	5.0612
273.15 K, 309 kPa, x1 = 0.5069	4.1836
273.15 K, 321.34 kPa, x1 = 0.5069	4.3576
273.15 K, 323.08 kPa, x1 = 0.5069	4.3804
273.15 K, 340.35 kPa, x1 = 0.5069	4.6226
273.15 K, 344.34 kPa, x1 = 0.2658	5.85
273.15 K, 347.43 kPa, x1 = 0.2658	5.905
273.15 K, 396.65 kPa, x1 = 0.2658	6.7965
273.15 K, 401.7 kPa, x1 = 0.2658	6.8905
273.15 K, 402.73 kPa, x1 = 0.5069	5.504
273.15 K, 406.45 kPa, x1 = 0.2658	6.9764
273.15 K, 409.05 kPa, x1 = 0.5069	5.5939
273.15 K, 415.33 kPa, x1 = 0.5069	5.6832
273.15 K, 430.8 kPa, x1 = 0.2658	7.425
273.15 K, 441.3 kPa, x1 = 0.5069	6.0553
273.15 K, 445.43 kPa, x1 = 0.2658	7.6956
273.15 K, 453.52 kPa, x1 = 0.5069	6.2301
273.15 K, 486.1 kPa, x1 = 0.2658	8.4581
273.15 K, 491.06 kPa, x1 = 0.5069	6.7718
273.15 K, 491.24 kPa, x1 = 0.2658	8.5547
273.15 K, 491.73 kPa, x1 = 0.2658	8.5641
273.15 K, 492.46 kPa, x1 = 0.7498	5.1329
273.15 K, 497.16 kPa, x1 = 0.5069	6.8601
273.15 K, 500.89 kPa, x1 = 0.7498	5.2229
273.15 K, 503.23 kPa, x1 = 0.5069	6.9481
273.15 K, 506.93 kPa, x1 = 0.5069	7.0019
273.15 K, 537.7 kPa, x1 = 0.2658	9.4417
273.15 K, 542.15 kPa, x1 = 0.2658	9.5274
273.15 K, 556.33 kPa, x1 = 0.5069	7.7247
273.15 K, 562.21 kPa, x1 = 0.2658	9.9157
273.15 K, 568.57 kPa, x1 = 0.2658	10.0392
273.15 K, 598.52 kPa, x1 = 0.2658	10.627
273.15 K, 607.75 kPa, x1 = 0.5069	8.4837
273.15 K, 608.84 kPa, x1 = 0.2658	10.8307
273.15 K, 612.13 kPa, x1 = 0.5069	8.5493
273.15 K, 615.59 kPa, x1 = 0.2658	10.9644
273.15 K, 619.26 kPa, x1 = 0.5069	8.6551
273.15 K, 625.49 kPa, x1 = 0.5069	8.7476
273.15 K, 631.66 kPa, x1 = 0.5069	8.8402
273.15 K, 635.08 kPa, x1 = 0.2658	11.3537
273.15 K, 652.39 kPa, x1 = 0.2658	11.7011
273.15 K, 659.32 kPa, x1 = 0.2658	11.8408
273.15 K, 701.31 kPa, x1 = 0.5069	9.8889
273.15 K, 705.87 kPa, x1 = 0.5069	9.9584
273.15 K, 711.71 kPa, x1 = 0.5069	10.0475
273.15 K, 781.92 kPa, x1 = 0.5069	11.1241
273.15 K, 803.19 kPa, x1 = 0.5069	11.4547
273.15 K, 829.52 kPa, x1 = 0.5069	11.8643
273.15 K, 888.98 kPa, x1 = 0.5069	12.8024
273.15 K, 899.81 kPa, x1 = 0.7498	9.5966
273.15 K, 907.76 kPa, x1 = 0.5069	13.1006
273.15 K, 930.25 kPa, x1 = 0.5069	13.4618
273.15 K, 971.91 kPa, x1 = 0.5069	14.1337
273.15 K, 986.2 kPa, x1 = 0.5069	14.3651
273.15 K, 1000.4 kPa, x1 = 0.7498	10.7338
273.15 K, 1009.5 kPa, x1 = 0.5069	14.7469
273.15 K, 1015 kPa, x1 = 0.7498	10.9019
273.15 K, 1015.5 kPa, x1 = 0.5069	14.8424
273.15 K, 1041.7 kPa, x1 = 0.5069	15.2749
273.15 K, 1299.2 kPa, x1 = 0.7498	14.1894
273.15 K, 1500.9 kPa, x1 = 0.7498	16.5996
273.15 K, 1510.9 kPa, x1 = 0.7498	16.7231
273.15 K, 1700.4 kPa, x1 = 0.7498	19.0432
273.15 K, 1998.9 kPa, x1 = 0.7498	22.8321
273.15 K, 1999.7 kPa, x1 = 0.7498	22.8429
273.15 K, 2002 kPa, x1 = 0.7498	22.875
273.15 K, 2303.6 kPa, x1 = 0.7498	26.8673
293.14 K, 149.9 kPa, x1 = 0.2658	2.2913
293.14 K, 469.3 kPa, x1 = 0.2658	7.4652
293.14 K, 568.75 kPa, x1 = 0.2658	9.168
293.14 K, 1056.3 kPa, x1 = 0.2658	18.3225
293.14 K, 1105.7 kPa, x1 = 0.2658	19.3404
293.14 K, 1807.2 kPa, x1 = 0.5069	25.9503
293.15 K, 258.04 kPa, x1 = 0.2658	3.9961
293.15 K, 355.08 kPa, x1 = 0.2658	5.5657
293.15 K, 393.88 kPa, x1 = 0.5069	4.9714
293.15 K, 613.82 kPa, x1 = 0.5069	7.8849
293.15 K, 655.65 kPa, x1 = 0.2658	10.6963
293.15 K, 803.74 kPa, x1 = 0.5069	10.489
293.15 K, 857.4 kPa, x1 = 0.2658	14.4071
293.15 K, 955.25 kPa, x1 = 0.2658	16.2977
293.15 K, 1006.2 kPa, x1 = 0.5069	13.3634
